These results are taken from US5326788A, “Biological fluid purification system” (priority 1992, dated 1994).

Experiment [1] concerns HIV-1 env. In words: Syncytia assay, cell line expressing only envelope proteins of HIV-1 IIIb with Supt-1 cells. The format is cell-based. Conditions: 24 hours. The protocol:
(§1) In order to assess the effects of Hy and Ps on the ability of HIV to form syncytia, the following experiments were performed. For the analysis of HIV-1, an entry syncytia assay was performed by co-culturing H9 cells (described in Popovic, M. et al. Science 224: 497-500, 1984) infected with the IIIb isolate of HIV with uninfected Supt-1 cells (Walker, B. D. et al. Proc. Nat. Acad. Sci. (USA) 84: 8120-8124, 1987) as the target cell. HIV-2 was tested using HUT78 cells (obtained from the National Institute of Health by reference to Depository Catalog, Reagent Program, Bethesda, Md.) infected with the ROD-2 isolate of HIV-2 co-cultured with uninfected H9 target cells. The infected cells were plated in 96 well plates (10^4 cells per well in RPM1 1640 medium with 10% fetal calf serum) and incubated with or without dilutions of Ps or Hy for 30 minutes at 37° C. 1×10^5 target cells were then added per well and the number of syncytia were quantitatively and qualitatively determined after 24 hours.
Also tested in a syncytia assay was a constructed cell line expressing only the envelope proteins of HIV-1 type IIIb isolate (Walker, B. D. et al., supra). These cells, designated HIV-1 env in Table 6, were treated with the indicated concentrations of Ps or Hy and incubated with uninfected Supt-1 target cells as above.

Experiment [2] has as its system HIV-1. In words: Syncytia assay, H9 cells infected with IIIb isolate of HIV co-cultured with Supt-1 cells. The format is cell-based. As to conditions: 24 hours. The protocol:
as §1

The test system of experiment [3] is HIV. As to the kind of experiment: Inactivation of HIV from blood of sero-positive patient, reverse transcriptase activity after culture with H9 cells. As to conditions: Human immunodeficiency virus 1, H9, 1 h, read-out: concentration giving complete inactivation of HIV (no reverse transcriptase detected), 1 hour at 37° C., H9 cells. The format is cell-based, Human Immunodeficiency Virus (HIV). The protocol: In order to show the effectiveness of the compounds of the present invention in the inactivation of HIV, blood was obtained from an HIV sero-positive patient and treated with hypericin and pseudohypericin at various concentrations for 1 hour at 37° C. and incubated with uninfected H9 cells in culture. Thereafter, reverse transcriptase enzymatic activity was determined as disclosed in U.S. patent application Ser. Nos. 084,008 and 172,064 filed Aug. 10, 1987 and Mar. 23, 1988, respectively.
(§2) In FIG. 1, open squares represent hypericin-treated and pluses represent pseudohypericin treated HIV. […] Inactivation of the reverse transcriptase activity of the virions was not a result of a direct inhibition of reverse transcriptase activity per se, as incubation of either compound directly with purified reverse transcriptase from either avian myeloblastosis virus or murine leukemia virus had no effect on enzyme activity. Furthermore, aliquots of HIV derived from these H9 cell cultures lost the ability to replicate in culture when exposed to as little as 0.77 micrograms/ml of hypericin.

For experiment [4], the system named is HIV. As to the kind of experiment: Inhibition of HIV induced syncytia formation / cell fusion (summary over the assays). It counts as cell-based, Human Immunodeficiency Virus (HIV). The protocol:
as §1

For experiment [5], the system named is HIV-2. In words: Syncytia assay, HUT78 cells infected with ROD-2 isolate co-cultured with H9 cells. As to conditions: 24 hours. It counts as cell-based. The protocol:
as §1

For experiment [6], the system named is purified reverse transcriptase from avian myeloblastosis virus. As to the kind of experiment: Direct incubation with purified reverse transcriptase. The format is biochemical. The protocol: as §2
In experiment [7] the target is purified reverse transcriptase from murine leukemia virus (Moloney murine leukemia virus isolate Shinnick, UniProt P03355). The experiment is described as above. It counts as biochemical. The protocol: as §2
The test system of experiment [8] is HIV. Conditions: cited from earlier work.

Consider `Cc1cc(O)c2c(=O)c3c(O)cc(O)c4c5c(O)cc(O)c6c(=O)c7c(O)cc(CO)c8c1c2c(c34)c(c65)c78` [pseudohypericin], for which the “syncytia score (number 0-4, size S/M/L)” value in experiment [1] (12 nanograms), in experiment [1] (24 nanograms), in experiment [1] (47 nanograms), in experiment [1] (94 nanograms), in experiment [1] (188 nanograms) and in experiment [1] (375 nanograms) was 4 L each time. Besides, the “syncytia score (number 0-4, size S/M/L)” value amounted to 4 L in experiment [1] (750 nanograms); 3 L in experiment [1] (1500 nanograms); 1S in experiment [1] (3000 nanograms); 4 L in experiment [2] (12 nanograms); 4 L in experiment [2] (24 nanograms); 4 L in experiment [2] (47 nanograms). Besides, the “syncytia score (number 0-4, size S/M/L)” value in experiment [2] (94 nanograms) is 4 L; in experiment [2] (188 nanograms), 4 L; in experiment [2] (375 nanograms), 4 L; in experiment [2] (750 nanograms) it was 4 L; in experiment [2] (1500 nanograms), 3 M; in experiment [2] (3000 nanograms) it was 1S. Also, the “syncytia score (number 0-4, size S/M/L)” value in experiment [5] (12 nanograms), in experiment [5] (24 nanograms), in experiment [5] (47 nanograms), in experiment [5] (94 nanograms), in experiment [5] (188 nanograms) and in experiment [5] (375 nanograms) was 4 L in each case. Also, the results for the “syncytia score (number 0-4, size S/M/L)” value in experiment [5] (750 nanograms), in experiment [5] (1500 nanograms) and in experiment [5] (3000 nanograms) were 3 M, 2S and 2S, respectively. The IC100 in experiment [3] was over 100 µg/mL. The “inhibition of cell fusion” value in experiment [4] (compared with hypericin) is “effective but at substantially higher”. The “dose needed for similar inhibition relative to hypericin” value in experiment [4] (syncytia formation) is on record as 20-60 fold. For the same compound, the “effect on enzyme activity of purified reverse transcriptase” value in experiment [6] and in experiment [7] was “no effect” in each case.

In the case of “nonylphenoxypolyethoxyethanol [Nonoxynol-9]”, the “concentration effective against free virus” value in experiment [8] is listed as > 0.05 % (vol/vol).
